Measured values published in PubChem BioAssay (NCI).
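Each compound was tested at five concentrations against cells in 96-well plates for 48 hours. GI50 = concentration required for 50% inhibition of growth. TGI: concentration producing complete growth inhibition.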

Assays:
Assay in all cases: NCI anticancer screen, dose series, 48 h
SN12C renal = test system: SN12C renal
U251 CNS = test system: U251 CNS
NCI/ADR-RES ovarian = test system: NCI/ADR-RES ovarian
OVCAR-8 ovarian = test system: OVCAR-8 ovarian
SK-MEL-2 melanoma = test system: SK-MEL-2 melanoma
HOP-92 NSCLC = test system: HOP-92 NSCLC
MALME-3M melanoma = test system: MALME-3M melanoma
UO-31 renal = test system: UO-31 renal
DMS 273 small cell lung = test system: DMS 273 small cell lung
KM20L2 colon = test system: KM20L2 colon

| Structure (SMILES) | GI50 (SN12C renal) [µM] | TGI (SN12C renal) [µM] | GI50 (U251 CNS) [µM] | TGI (U251 CNS) [µM] | GI50 (NCI/ADR-RES ovarian) [µM] | TGI (NCI/ADR-RES ovarian) [µM] | GI50 (OVCAR-8 ovarian) [µM] | TGI (OVCAR-8 ovarian) [µM] | GI50 (SK-MEL-2 melanoma) [µM] | TGI (SK-MEL-2 melanoma) [µM] | GI50 (HOP-92 NSCLC) [µM] | TGI (HOP-92 NSCLC) [µM] | GI50 (MALME-3M melanoma) [µM] | TGI (MALME-3M melanoma) [µM] | GI50 (UO-31 renal) [µM] | TGI (UO-31 renal) [µM] | TGI (DMS 273 small cell lung) [µM] | TGI (KM20L2 colon) [µM] | GI50 (DMS 273 small cell lung) [µM] | GI50 (KM20L2 colon) [µM] |
| --- | --- | --- | --- | --- | --- | --- | --- | --- | --- | --- | --- | --- | --- | --- | --- | --- | --- | --- | --- | --- |
| Cn1c2ccccc2c2c(-c3ccccc3)[n+]3ccncc3nc21 | 48.2 | > 100 | 47.4 | > 100 | > 100 | > 100 | > 100 | > 100 | 55 | > 100 | 96.6 | > 100 | 93.8 | > 100 | > 100 | > 100 |  |  |  |  |
| COc1ccc(/C=C/CN(C)CCc2ccccc2)cc1OC |  | > 100 |  | > 100 |  |  |  | > 100 |  | > 100 |  | 9.9 |  | > 100 |  | > 100 | > 100 | > 100 |  |  |
| O=C(O)CNS(=O)(=O)c1ccc(NCc2ccccc2)cc1 |  | > 100 |  | > 100 |  |  |  | > 100 |  | > 100 |  | > 100 |  | > 100 |  | > 100 | > 100 | > 100 |  |  |
| C[C@]12CC[C@H]3[C@@H](CC=C4C[C@@H](O)CC[C@@]43C)[C@@H]1CC[C@@H]2N(CCO)CCO |  | > 100 |  | > 100 |  | > 100 |  | > 100 |  | > 100 |  | > 100 |  | > 100 |  | > 100 |  |  |  |  |
| COC(=O)/C(=N/NC(=O)C[N+](C)(C)C)C(C(=O)OC)C(=O)C(=O)Nc1ccc(F)cc1 (stereo not given) |  | > 100 |  | > 100 |  |  |  |  |  | > 100 |  |  |  | > 100 |  | > 100 | > 100 | > 100 |  |  |
| C=C1C(=O)O[C@H]2[C@H]1CC/C(COC(=O)c1ccc3ccccc3c1)=C\CC[C@@]1(C)O[C@@H]21 | 1.16 | 2.87 | 1.21 | 2.5 | 2.32 | 10.2 | 1.1 | 2.56 | 1.2 | 2.61 | 0.301 | 1.81 | 1.74 | 3.47 | 0.859 | 2.11 |  |  |  |  |
| COc1cc(C2=NOC(c3cc(OC)c(OC)c(OC)c3)C2)ccc1OCCCCOc1cc2c(cc1OC)C(=O)N1CCC[C@H]1C=N2 (stereo not given in full) | 0.358 | 3.51 | 0.315 | 1.1 | 2.82 | 9.35 | 0.39 | 10.9 | 0.241 | 0.612 | 0.339 | 3.08 | 0.197 | 0.364 | 0.239 | 0.745 |  |  |  |  |
| CCOC(=O)[C]1([Bi]([CH3])[CH3])N=NC(C(=O)OC)=C1C(=O)OC (stereo not given) | 19.2 | 35.8 | > 100 | > 100 |  |  | 19.2 | 42.3 | 18.3 | 33.7 | 20.4 | 42.8 | 17 | 31.8 | 20.3 | 34.5 | 59.1 |  | 22.5 |  |
| O=c1c2cc([N+](=O)[O-])ccc2sc2ccsc12 |  | > 100 |  | > 100 |  |  |  | > 100 |  | > 100 |  | > 100 |  | > 100 |  | > 100 |  | > 100 |  |  |
| CCOc1cc2c(Cl)ncnc2c(OCC)c1OCC | 12 | 26.2 | 7 | 19.6 | 25.6 | > 64.3 | 6.34 | 28.5 | 3.61 | 10.3 | 3.67 | 14.2 | 9.5 | 27.5 | 8.45 | 23.6 |  |  |  |  |
| COC1/C=C\C=C(/C)C(=O)NC2=CC(=O)C(=O)C(=C2O)CC(C)CC(OC)C(O)C(C)/C=C(\C)C1OC(N)=O (stereo not given) |  | 3.22 |  | > 40.3 |  | > 100 |  | > 52.4 |  | > 60.5 |  | 21 |  | 21.7 |  | 39.8 |  |  |  |  |
| Oc1ccc(NCc2nc3ccccc3[nH]2)cc1 | 61.4 | > 100 | 28.2 | > 100 | > 100 | > 100 | 26.8 | > 100 | 22.8 | 98.8 | 12.8 | 53 | 76.3 | > 100 | > 100 | > 100 |  |  |  |  |
| OCC(O)CC[CH2][Sn]([Br])([c]1ccccc1)[c]1ccccc1 (stereo not given) | > 100 | > 100 | > 100 | > 100 |  |  | > 100 | > 100 | > 100 | > 100 | > 100 | > 100 |  |  | > 100 | > 100 | > 100 | > 100 | > 100 | > 100 |
| O=c1[nH]ncc(Br)c1Br | 2.34 | 6.13 | 1.66 | 3.02 | 2.91 | 7.69 | 2.86 | 10.8 | 2.16 | 5.62 | 1.79 | 3.31 | 1.81 | 3.71 | 1.87 | 4.51 |  |  |  |  |
| CC[C@]1(O)C[C@@H]2CN(CCc3c([nH]c4ccccc34)[C@@](C(=O)OC)(c3cc4c(cc3OC)N(C)[C@H]3[C@@](O)(C(=O)OC)[C@H](OC(C)=O)[C@]5(CC)C=CCN6CC[C@]43[C@@H]65)C2)C1 | < 0.01 | 35.7 | < 0.01 | 20.5 | < 0.0445 | 2.68 | < 0.01 | > 100 | < 0.0149 | 20.2 | < 0.01 |  | < 0.01 | 14.1 | 0.175 | 19.1 |  |  |  |  |
| Oc1ccc2ccccc2c1N=Nc1nccs1 | 1.77 | 44 | 0.29 | 13.4 | 0.393 |  | 0.494 | 42 | 3.09 | 34.5 | 0.389 | > 48.8 | 2.41 | 15.4 | 0.216 | 11.9 |  |  |  |  |
| COc1ccc(-c2cc(=O)c3c(OC)c(OC)c(OC)cc3o2)cc1 |  | 91.1 |  | > 100 |  | > 100 |  | > 100 |  | 56 |  | 79.9 |  | > 100 |  | 87.7 |  |  |  |  |
